These results are taken from ChEMBL document CHEMBL1201862, “PubChem BioAssay data set” (2004).

Assay [1] deals with Potassium channel subfamily K member 9 (Homo sapiens, UniProt Q9NPC2). Description: KCNK9 flux blockade, concentration-response – cell-based, FluxOR thallium flux, selectivity assay for TASK1 inhibitor project, SAR follow-up (AID 652211).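 Also: potency is for inhibitors of the channel.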 It is filed as functional.
Assay [2] addresses Potassium channel subfamily K member 3 (Homo sapiens, UniProt O14649). Description: inhibition of human KCNK3 channel flux – CHO cells, FluxOR thallium flux, SAR follow-up (AID 652212). It is filed as functional.
Assay [3] has as its target T1, Heat shock factor protein 1 (Mus musculus, UniProt P38532).
T1 sequence (P38532 whole entry): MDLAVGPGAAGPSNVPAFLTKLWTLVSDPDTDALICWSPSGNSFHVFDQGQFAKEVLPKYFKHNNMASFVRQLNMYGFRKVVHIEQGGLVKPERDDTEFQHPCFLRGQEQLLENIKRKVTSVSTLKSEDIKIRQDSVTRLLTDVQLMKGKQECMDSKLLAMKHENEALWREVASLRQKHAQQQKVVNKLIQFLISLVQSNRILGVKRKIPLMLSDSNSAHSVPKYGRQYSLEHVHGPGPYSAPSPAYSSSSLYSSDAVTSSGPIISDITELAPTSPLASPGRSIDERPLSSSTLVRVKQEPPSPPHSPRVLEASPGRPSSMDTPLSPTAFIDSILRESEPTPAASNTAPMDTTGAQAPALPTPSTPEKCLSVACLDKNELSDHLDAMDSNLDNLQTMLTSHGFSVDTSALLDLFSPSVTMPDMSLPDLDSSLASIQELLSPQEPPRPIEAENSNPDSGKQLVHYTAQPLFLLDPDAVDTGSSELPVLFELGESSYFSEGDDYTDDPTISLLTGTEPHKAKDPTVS
Description: enhancement of HSF1-driven luciferase signal – cell-based, NIH3T3, luminescence, dose retest, confirmation (AID 435004).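 Also: stress induced by proteasome inhibitor MG132 added 30 min after compound; luciferase reporter driven by HSF1 response element in NIH3T3 cells; actives raise luminescence as potentiators of the MG132 stress response.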 It is filed as functional.

The subject of the next assay is Streptococcus. Description: GAS UMAA2166 growth inhibition – luminescence, BacTiterGlo, counter-screen for streptokinase expression inhibitor project, dose response (AID 1915).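 Also: potency for reduction of bacterial viability or growth.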 It is filed as functional, organism-based. (In general: The purpose of a counterscreen is to sort out artefacts and off-target activity.)
A further assay concerns the target T2, Streptokinase A (Streptococcus pyogenes serotype M1, UniProt P10520).
T2 sequence (P10520 whole entry): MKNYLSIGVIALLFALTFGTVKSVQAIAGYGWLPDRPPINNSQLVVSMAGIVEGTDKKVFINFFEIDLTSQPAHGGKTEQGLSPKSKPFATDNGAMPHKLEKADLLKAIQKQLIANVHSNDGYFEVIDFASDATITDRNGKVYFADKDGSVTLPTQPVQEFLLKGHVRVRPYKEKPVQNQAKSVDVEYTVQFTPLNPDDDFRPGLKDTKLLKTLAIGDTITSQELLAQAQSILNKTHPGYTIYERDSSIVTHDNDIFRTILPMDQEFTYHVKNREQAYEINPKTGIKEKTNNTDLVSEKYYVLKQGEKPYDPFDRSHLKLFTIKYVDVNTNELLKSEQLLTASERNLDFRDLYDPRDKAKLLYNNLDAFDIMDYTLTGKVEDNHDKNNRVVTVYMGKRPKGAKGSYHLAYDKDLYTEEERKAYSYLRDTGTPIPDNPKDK
In words: viability-normalized secreted streptokinase activity reduction – plasminogen activation absorbance, OD405, dose response (AID 1914).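 Also: secreted streptokinase activity via plasminogen activation per viability signal from cell pellet.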 It is filed as functional, Streptococcus pyogenes M1 GAS.

Assay [4] is described as follows: viability loss in HepG2 hepatoma cells – cell-based, ATP luminescence, cherry-pick, activator set 2, cytotoxicity control, dose response (AID 1053143). It is filed as functional.
Assay [5] is described as follows: viability loss in A549 lung cancer cells – cell-based, CellTiter-Glo luminescence, dry powder, set 3, cytotoxicity control, dose response (AID 743146). It is filed as functional. For orientation: In ATP-based viability assays light output follows the ATP content of the culture.
Assay [6] is described as follows: HEK293T viability loss – cell-based, ATP luminescence, dry powder, Set6, cytotoxicity control, dose response (AID 743142). It is filed as functional. Particulars: HEK293.
A short description of assay [7]: OVCAR-3 cell viability loss – plate reader, dry powder samples, PAX8 inhibitor project, dose response (AID 743044). It is filed as functional, cell-based.
Assay [8] can be described thus: inhibitors acting on PAX2 in cells – cell-based, plate reader, dry powder samples, selectivity assay for PAX8 inhibitor project, dose response (AID 743048).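 Also: HEK293 cells carrying a WT1 promoter luciferase reporter driven by expressed Pax2; potency is for inhibition of Pax2 driven reporter signal.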 It is filed as functional.
Assay [9] is described as follows: toxicity toward immortalized ovarian surface epithelium – cell-based, plate reader, dry powder samples, cytotoxicity control for PAX8 inhibitor project, dose response (AID 743045). It is filed as functional.
A short description of assay [10]: COV434 cell viability loss – plate reader, dry powder, SA7, cytotoxicity control for PAX8 inhibitor project, dose response (AID 743145). It is filed as functional, cell-based.
A short description of assay [11]: COV362 cell viability loss – plate reader, dry powder, SA12, cytotoxicity control for PAX8 inhibitor project, dose response (AID 743144). It is filed as functional, cell-based.
Assay [12] in a line: PAX5 cellular inhibition readout – cell-based, plate reader, dry powder samples, selectivity assay for PAX8 inhibitor project, dose response (AID 743047).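 Also: HEK293 cells carrying a Pax5 driven CD19 promoter luciferase reporter; potency of inhibitors that lower reporter luminescence.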 It is filed as functional.
The nature of assay [13]: IGROV1 cell killing – plate reader, dry powder samples, PAX8 inhibitor project, dose response (AID 743043). It is filed as functional, cell-based. Particulars: IGROV-1.
A short description of assay [14]: OV-90 cell viability loss – plate reader, dry powder, SA8, PAX8 inhibitor project, dose response (AID 743149). It is filed as functional, cell-based.
Assay [15] can be described thus: PAX8-dependent cell viability loss – plate reader, dry powder, dose response (AID 743049). It is filed as functional, cell-based.
Assay [16] is described as follows: OVCAR4 cell viability loss – plate reader, dry powder, SA11, cytotoxicity control for PAX8 inhibitor project, dose response (AID 743150). It is filed as functional, cell-based. Particulars: OVCAR-4.
Another assay deals with Beta Lactamase (Pseudomonas aeruginosa, UniProt Q932Y6). Description: BLA reporter interference, concentration series – BLA reporter cells, FRET fluorescence, artefact control for TLR9-MyD88 binding inhibitor project, dose response (AID 588341).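 Also: cell based assay in CHO-K1 cells stably expressing beta-lactamase.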 It is filed as cell-based.
The target in assay [17] is Photoreceptor-specific nuclear receptor (Homo sapiens, UniProt Q9Y5X4). It is filed as functional, cell-based.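 Also: CHO-S cells with Gal4-NCOR and VP16-NR2E3 two-hybrid luciferase reporter.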
The nature of assay [18]: reduced cellular PGC1a acetyl-lysine signal – cell-based, cherry-picked samples, dose response (AID 720514).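 Also: potency may reflect raised or lowered acetylation signal.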 It is filed as functional.
Assay [19] can be described thus: Late stage assay provider counterscreen for TLR9 inhibitors: absorbance-based cell-based MTT cytotoxicity assay. It is filed as functional.
The next assay concerns CHO. In words: CHO cell viability loss, potency – luminescence, cytotoxicity control for TLR9-MyD88 binding inhibitor project, dose response (AID 588339).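 Also: CHO cells stably coexpressing TLR9 and MyD88 fusions from primary screen; compound exposure lasted 48 hours before viability readout.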 It is filed as functional, cell-based, hamster. Particulars: Cricetulus griseus.
In another assay the test system is HEK293. In words: viability loss in HEK293T cells – cell-based, ATP luminescence, cherry-pick samples, cytotoxicity control, dose response (AID 687005).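 Also: cells exposed to compound for 48 hours.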 It is filed as functional. Particulars: Homo sapiens.
Assay [20] can be described thus: HEK293 Cytotoxicity Assay Measured in Cell-Based System Using Plate Reader - 7071-01_Inhibitor_Dose_CherryPick_Activity_Set2. It is filed as functional.
Assay [21] can be described thus: Late stage assay provider results from the probe development effort to identify selective inhibitors of heat shock protein 90 (HSP90): Absorbance-based cell proliferation assay in SKBR3 cells. It is filed as functional. Particulars: SK-BR-3.
Assay [22] can be described thus: Late stage assay provider results from the probe development effort to identify selective inhibitors of heat shock protein 90 (HSP90): Absorbance-based cell proliferation assay in MCF7 cells. It is filed as functional.
In another assay the target is Major prion protein (Homo sapiens, UniProt P04156). It is filed as functional, cell-based.

Each structure is given as a SMILES string. Active and inactive are the calls of the source.

One may read the IC50 as the concentration needed to halve the response being measured. One may read the EC50 as the midpoint of the concentration-response curve. As usually defined, the AC50 is the concentration giving half of the maximal activity seen. The CC50 is the concentration at which the toxic effect on the cells reaches its halfway point.

For `CCOc1ccccc1NC(=O)c1cccc(NC(=O)c2cccc(C(F)(F)F)c2)c1`, the IC50 is 1.38 µM (active) in [1] and 0.232 µM (active) in [2].
Consider `Cn1nnc(-c2ccc(OCc3ccccc3F)cc2)n1`, for which the EC50 was > 260 µM (inactive) in [3], > 150 µM (not active) in the assay with Streptococcus and > 150 µM (not active) at Streptokinase A. In assay [4], the AC50 is 26 µM (active).
With `COc1ccc(C(=O)NCCC(=O)N[C@@H]2CCCc3ccccc32)cc1`, the AC50 in assay [5] is > 52 µM (inactive); in assay [6], 3.54 µM (active).
Consider `N#C[C@@H]1[C@@H](c2ccc(C#Cc3ccccc3F)cc2)[C@@H](CO)N1C(=O)C1CCCC1`, for which the half-maximal activity concentration (AC50) in [7] was 29.7 µM (active); in [8] it was 16.5 µM (active); in assay [9] it was 27 µM (active); in [10], 10.9 µM (active); in assay [11] it was 48.5 µM (active); in [12], 18.1 µM (active). The concentration at half-maximal activity (AC50) in [13] is 47.3 µM (active); in [14] it was 35.3 µM (active); in assay [15], 11.9 µM (active); in assay [16], 44.3 µM (active).
As to `COc1ccc(C[C@@H]2OC3(C=CC(=O)C=C3)O[C@H]2Cc2ccc(OC)cc2)cc1`, the IC50 at Beta Lactamase was 17.5 µM (inactive); in assay [17] it was 0.149 µM (active); in the assay on CHO, 0.597 µM (active). The AC50 in [18] was 0.756 µM (active). The half-maximal cytotoxic concentration (CC50) in assay [19] is 0.48 µM (active).
As to `COc1ccc(NC(=O)Nc2ccc3c(c2)C(=O)N([C@H](C)CO)C[C@H](C)[C@H](CN(C)C(=O)Cc2ccccc2)OCCCC[C@H](C)O3)cc1`, the AC50 (in the assay with HEK293; in [20]) was 25.4 µM (active) each time.
For the compound `COc1c[nH]c(C(=O)Nc2ccc(C(C)C)cc2)cc1=O`, the IC50 in [21] and in assay [22] was > 100 µM (inactive) each time.
As for `O=C(O)CCC(=O)NNC(=O)COc1ccc2ccccc2c1Br`, the IC50 was 4.45 µM (active) on Major prion protein and > 138 µM (inactive) in “cells”.
